# From PMC11747885, “Potent inhibitors of the human RNA ligase Rlig1 highlights its role in RNA integrity maintenance under oxidative cellular stress” (Chemical Science, 2025)
# “And” between values parts separate entries of the source, which are not always exact repeats. Equal entries are not always repeated. “Also recorded” adds a separate entry of the source. Where two headings read alike, the source gives them in different places.
# Key:
# [1] = biological target: T1, Rlig1-AMP (Homo sapiens, UniProt Q8N999); assay: FRET-based high-throughput screening of inhibitors for Rlig1-AMP; format: biochemical; conditions: for 1-D Distance: difference of raw data w/o and w enzyme; for 1-D Distance.npi: normalized value (npi); for Raw data [w Enyzm]: with enzyme; for Raw data [w/o Enzym]: without enzyme
# T1 construct: made in house; host or cells: E. coli BL21 (DE3), pET15b-Rlig1
# T1 sequence (Q8N999 whole entry): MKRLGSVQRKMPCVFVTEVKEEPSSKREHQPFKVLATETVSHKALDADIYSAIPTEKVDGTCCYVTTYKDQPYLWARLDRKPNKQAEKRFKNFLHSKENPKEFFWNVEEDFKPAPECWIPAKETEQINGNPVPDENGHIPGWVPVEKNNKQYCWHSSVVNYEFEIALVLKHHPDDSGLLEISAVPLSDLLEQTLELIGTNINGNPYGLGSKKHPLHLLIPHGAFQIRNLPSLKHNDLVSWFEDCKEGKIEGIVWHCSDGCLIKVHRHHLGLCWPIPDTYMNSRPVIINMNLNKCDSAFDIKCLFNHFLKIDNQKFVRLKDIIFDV
# [2] = test system: kinesin-like protein KIFC1 (HSET/KIFC1); parameters: method as in MedChemExpress; conditions: ref MedChemExpress; cited from earlier work
# [3] = test system: SHSY5Y neuroblastoma cells; parameters: method as in MedChemExpress; conditions: ref MedChemExpress, cited from earlier work
# [4] = DMSO; ref MedChemExpress; cited from earlier work
# [5] = biological target: T1, Rlig1-AMP; assay: Radioactive RNA ligation assay (hit validation, 10 µM test and IC50 determination); format: biochemical; conditions: for IC50: n = 3; for percentage inhibition (dose response curve for IC50): replicates I-III
# [6] = Cell viability assay of HEK293 cells treated with inhibitors and menadione; format: cell-based, human; conditions: human, HEK293 cells, 30 μM compound, 24 h, no menadione; read-out: cell viability without oxidative stress
# [7] = test system: HEK293 cells; assay: as above; format: cell-based, human; conditions: inhibitor 24 h, then 40 μM menadione 5 h
# [8] = test system: HEK293 cells; assay: RNA integrity analysis of HEK293 cells treated with inhibitors and menadione (TapeStation 28S/18S rRNA); format: cell-based, human; conditions: 30 μM compound 24 h; Menadione 0 μM
# [9] = test system: HEK293 cells; assay: Light-microscopy of inhibitor- and menadione-treated HEK293 cells; format: cell-based, human; conditions: 30 µM compound 24 h, then menadione 5 h
# [10] = test system: DNA methyltransferases (DNMTs); conditions: cited from earlier work
# [11] = in vitro; conditions: human
# [12] = test system: HEK293 cells; assay: Cell viability assay of HEK293 cells treated with inhibitors (CellTiter-Glo)
# [13] = biological target: T2, human DNA ligase 1 (hLig1) (Homo sapiens, UniProt P18858); assay: DNA ligation assay with various hLig1 concentration at constant inhibitor concentration; format: biochemical; conditions: 10 µM compound, 30 min 37 °C, three replicates
# T2 construct: made in house; host or cells: E. coli Rosetta BL21 (DE3), pET28a-hLig1
# T2 sequence (P18858 whole entry): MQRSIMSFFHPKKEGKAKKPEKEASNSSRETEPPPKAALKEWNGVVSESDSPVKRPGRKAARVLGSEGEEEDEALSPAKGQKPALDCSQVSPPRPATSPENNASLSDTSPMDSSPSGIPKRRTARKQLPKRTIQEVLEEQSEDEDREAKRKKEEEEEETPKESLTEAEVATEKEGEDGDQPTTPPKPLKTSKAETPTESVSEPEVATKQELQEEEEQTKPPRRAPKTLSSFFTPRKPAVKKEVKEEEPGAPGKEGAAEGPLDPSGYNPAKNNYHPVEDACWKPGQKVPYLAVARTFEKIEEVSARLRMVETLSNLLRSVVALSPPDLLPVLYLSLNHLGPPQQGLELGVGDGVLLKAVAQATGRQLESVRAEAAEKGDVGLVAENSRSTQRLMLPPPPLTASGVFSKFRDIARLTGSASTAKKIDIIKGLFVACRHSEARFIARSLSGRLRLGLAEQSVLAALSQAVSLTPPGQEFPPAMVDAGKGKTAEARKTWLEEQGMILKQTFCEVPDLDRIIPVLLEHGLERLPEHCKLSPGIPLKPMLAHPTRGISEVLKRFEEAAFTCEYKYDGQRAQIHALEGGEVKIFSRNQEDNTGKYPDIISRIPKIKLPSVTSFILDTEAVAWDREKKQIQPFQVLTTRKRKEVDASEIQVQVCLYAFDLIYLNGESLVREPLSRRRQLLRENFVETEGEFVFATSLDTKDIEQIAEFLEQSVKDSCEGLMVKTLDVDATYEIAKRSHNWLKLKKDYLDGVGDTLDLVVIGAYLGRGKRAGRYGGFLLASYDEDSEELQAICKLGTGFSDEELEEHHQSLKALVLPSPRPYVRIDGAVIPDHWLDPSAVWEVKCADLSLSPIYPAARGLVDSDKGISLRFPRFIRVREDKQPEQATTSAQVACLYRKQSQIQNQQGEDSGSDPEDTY
# [14] = test system: FLT3 WT; parameters: method as in MedChemExpress [1][2][3]; conditions: ref MedChemExpress [1][2][3]; cited from earlier work
# [15] = test system: FLT3 internal tandem duplication (ITD); parameters: method as in MedChemExpress [1][2][3]; conditions: ref MedChemExpress [1][2][3]; cited from earlier work
# [16] = test system: FLT3 D835Y; parameters: method as in MedChemExpress [1][2][3]; conditions: ref MedChemExpress [1][2][3]; cited from earlier work
# [17] = in DMSO; ref MedChemExpress; cited from earlier work
# [18] = radioactive ligation assay, 500 nM Rlig1-AMP, 20 min 37 °C, read-out: IC50
# [19] = log(inhibitor) vs. response, variable slope (four parameters)
smiles,measurement,setting,value
CCCc1cc(C(=O)N[C@H](Cc2ccc(-c3cccc(OC(F)(F)F)c3)nc2)C(=O)N[C@@H]2CCNC2)sc1C [AZ82],1-D Distance,[1]; HTS hits,670
same,1-D Distance.npi,[1]; HTS hits,96.1946
same,Raw data [w Enyzm],[1]; HTS hits,8773
same,Raw data [w/o Enzym],[1]; HTS hits,9443
same,IC50,[2],0.3 µM
same,Ki,[2],0.043 µM
COc1nc(-c2cc(C)c(N[C@@H](C)c3ccc(F)cc3)nn2)ccc1-n1cnc(C)c1 [BPN-15606],1-D Distance,[1]; HTS hits,1474
same,1-D Distance.npi,[1]; HTS hits,75.4488
same,Raw data [w Enyzm],[1]; HTS hits,8858
same,Raw data [w/o Enzym],[1]; HTS hits,10332
same,IC50,"[3]; read-out: IC50, production of Aβ40",0.017 µM
same,IC50,"[3]; read-out: IC50, production of Aβ42",0.007 µM
same,solubility,[4],100 mg/mL and 238.97 mM
"Cc1cc(Nc2ccc(NC(=O)c3ccc(Nc4ccnc5ccccc45)cc3)cc2)nc(N)n1 [Compound 1, SGI-1027, reference compound]",inhibition at 10 µM,"[1]; 10 μM compound, read-out: inhibition in HTS",> 70%
same,1-D Distance,[1]; HTS hits,390
same,Raw data [w Enyzm],[1]; HTS hits,8456
same,Raw data [w/o Enzym],[1]; HTS hits,8066
same,inhibition at 10 µM,"[5]; 10 µM compound, 37 °C, 20 min",> 70%
same,formation of the RNA-adenylate intermediate,[5]; dose-response urea-PAGE (Fig. S3),inhibited the formation of the RNA-adenylate intermediate
same,IC50,[5]; [18],3.96 µM
same,"viability at 24 h, 30 µM",[6],50%
same,cell viability under oxidative stress (in words),[7],almost complete loss of viability
same,28S/18S ratio,[8],> 2
same,cell morphology,[9],poor adherence and cell shrinkage
same,IC50,"[10]; DNMT1, poly(dI-dC) as substrate, ref MedChemExpress, read-out: IC50",12.5 µM
same,IC50,"[10]; DNMT3A, poly(dI-dC) as substrate, ref MedChemExpress, read-out: IC50",8 µM
same,IC50,"[10]; DNMT3B, poly(dI-dC) as substrate, ref MedChemExpress, read-out: IC50",7.5 µM
same,IC50,[10]; read-out: IC50 DNMTs,6 to 13 µM
same,"viability at 24 h, 0.234375 µM",[11],113%
same,"viability at 24 h, 0.46875 µM",[11],103%
same,"viability at 24 h, 0.9375 µM",[11],104%
same,"viability at 24 h, 1.875 µM",[11],101%
same,"viability at 24 h, 3.75 µM",[11],91.9%
same,"viability at 24 h, 7.5 µM",[11],83.6%
same,"viability at 24 h, 15 µM",[11],60.5%
same,"viability at 24 h, 30 µM",[11],51%
same,solubility,[4],27 mg/mL and 58.50 mM
same,cytotoxicity (in words),"[12]; HEK293, 24 h, up to 30 μM",moderate cytotoxicity
same,IC50 (Figure 3D: EC50 values for plot; log(inhibitor) vs. response -- Variable slope (four parameters)),"[12]; HEK293 cell viability, fit per plate (3 plates, 4 technical replicates each), highest tested concentration 30 µM",26.0265 µM and 22.3419 µM and 19.1567 µM
same,LogIC50 (log(inhibitor) vs. response -- Variable slope (four parameters)),"[12]; HEK293 cell viability, fit per plate (3 plates, 4 technical replicates each), log of [µM]",1.415 and 1.349 and 1.282
same,EC50,"[12]; Homo sapiens, HEK293, 24 h",23.2 µM
Nc1nccc(Nc2ccc(NC(=O)c3ccc(Nc4ccnc5ccccc45)cc3)cc2)n1 [Compound 26],inhibition of Rlig1-AMP ligation (urea-PAGE),"[5]; 10 μM compound, 500 nM Rlig1-AMP, 20 min 37 °C",Ligation was inhibited; also recorded: fully inhibited
same,HillSlope (best-fit value),[5]; four-parameter fit,3.34
same,Span (best-fit value),[5]; four-parameter fit,95.37
same,IC50,"[5]; four-parameter fit, read-out: IC50 (best-fit value)",4.49 µM
same,percentage inhibition (dose response curve for IC50),[5]; log Compound [µM] 0.273001,7.036 and 5.771 and 6.366
same,percentage inhibition (dose response curve for IC50),[5]; log Compound [µM] 0.574031,19.5464 and 52.3001 and 38.2038
same,percentage inhibition (dose response curve for IC50),[5]; log Compound [µM] 0.875061,94.6767 and 96.3427 and 56.3237
same,percentage inhibition (dose response curve for IC50),[5]; log Compound [µM] 1.17609,97.6992 and 100 and 95.9858
same,percentage inhibition (dose response curve for IC50),[5]; log Compound [µM] 1.47712,89.2369 and 100 (2×)
same,percentage inhibition (dose response curve for IC50),[5]; log Compound [µM] -0.0280287,3.692 and 2.642 and 2.052
same,percentage inhibition (dose response curve for IC50),[5]; log Compound [µM] -0.329059,0 and 3.294 and 5.142
same,percentage inhibition (dose response curve for IC50),[5]; log Compound [µM] -0.630089,0 and 3.877 and 4.72
same,LogIC50 (best-fit value),"[5]; log of µM, four-parameter fit",0.6524
same,Bottom (best-fit value),[5]; [19],2.425
same,Top (best-fit value),[5]; [19],97.8
same,IC50,[5]; [18],4.49 µM
same,DNA product formation,[13]; hlig1 0.0315 µM,43.039% and 22.9913% and 34.3002%
same,DNA product formation,[13]; hlig1 0.0625 µM,60.9211% and 39.0213% and 52.249%
same,DNA product formation,[13]; hlig1 0.5 µM,79.5392% and 84.6219% and 85.9221%
same,cell morphology,[9],poor adherence and cell shrinkage
Cc1ccc2c(-c3nc(Nc4cc(CN5C[C@@H](C)N[C@@H](C)C5)cc(C5CC5)c4)ncc3Cl)c[nH]c2c1 [HM43239],1-D Distance,[1]; sheet HTS hits,834
same,Raw data [w Enyzm],[1]; sheet HTS hits,6467
same,Raw data [w/o Enzym],[1]; sheet HTS hits,5633
same,IC50,[15],0.0018 µM
same,"solubility, DMSO",[17],DMSO : 125 mg/mL (249.47 mM; Need ultrasonic)
